Measurements published in US20210139484A1, “DIHYDROISOQUINOLINE-2(1H)-CARBOXAMIDE AND RELATED COMPOUNDS AND THEIR USE IN TREATING MEDICAL CONDITIONS” (GOSSAMER BIO SERVICES, INC., priority 2018, published 2021).
pIC50: −log10 of the molar value.

Biological target: T1, human HPK1 protein (Homo sapiens, UniProt Q92918)
T1 construct: recombinant human HPK1 protein (a.a. 1-346) was expressed in Sf9 insect cells; GST (N); purchased Signalchem M23-11G; host or cells: Sf9 insect cells (baculovirus)
T1 sequence (Q92918 1-346): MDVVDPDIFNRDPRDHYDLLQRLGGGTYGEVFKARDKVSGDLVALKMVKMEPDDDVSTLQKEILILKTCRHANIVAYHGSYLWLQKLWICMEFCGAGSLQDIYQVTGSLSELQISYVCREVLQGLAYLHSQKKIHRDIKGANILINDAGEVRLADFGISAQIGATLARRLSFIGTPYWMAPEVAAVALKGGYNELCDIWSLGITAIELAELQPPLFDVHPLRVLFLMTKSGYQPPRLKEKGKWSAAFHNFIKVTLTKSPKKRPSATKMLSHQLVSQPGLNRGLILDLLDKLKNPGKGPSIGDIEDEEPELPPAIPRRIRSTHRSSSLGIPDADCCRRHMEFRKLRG
Assay: Human HPK1 protein TR-FRET assay
Type: biochemical
Settings: 1 mM ATP, Table 19
Description: Exemplary compounds from the above Examples were tested for ability to inhibit HPK1 using a human HPK1 protein TR-FRET Assay. Assay procedures and results are described below.
N-terminal GST-tagged recombinant human HPK1 protein (a.a. 1-346) was expressed in Sf9 insect cells using a baculovirus expression system (Signalchem Catalog #M23-11G). The enzyme was diluted in assay buffer (50 mM Tris pH 7.5, 1 mM MgCl2, 0.01% NP-40 and 2 mM DTT) to obtain a 4× working solution at a concentration of 40 nM HPK1 enzyme.
A 5 μM stock of ULight™ CREBtide peptide RRPSYRK (Perkin Elmer Product No. TRF0107-M) derived from human cAMP Response Element Binding (CREB) Protein was prepared in storage buffer containing 50 mM Tris-HCl (pH 7.4), 0.9% NaCl, 0.1% BSA, and 0.05% sodium azide. The CREBtide substrate was diluted in assay buffer (50 mM Tris pH 7.5, 1 mM MgCl2, 0.01% NP-40, 2 mM DTT) with 2 mM ATP to a final concentration of 200 nM CREBtide peptide to obtain a 2× working solution of substrate. HPK1 enzyme and CREBtide substrate solutions were mixed with compounds diluted in DMSO to obtain a final concentration of enzyme, substrate, and ATP of 10 nM, 100 nM, and 1 mM, respectively, in 1% DMSO. The final assay mixture was incubated at room temperature for 60 minutes.
A solution of Europium-labeled anti-phospho-CREB (Ser133) antibody (Perkin Elmer Product No. TRF0200-M), EDTA and LANCE™ Detection Buffer (Perkin Elmer Product No. CR97-100) were added to each well to obtain a final concentration of 2 nM antibody, 10 mM EDTA and 1× LANCE buffer. The resulting mixture was incubated at room temperature for 60 minutes.
The fluorescence resonance energy transfer (FRET) signal was measured on an Envision plate reader: Excitation filter=340 nm, APC emission=665 nm, Europium emission=615 nm, dichroic mirror=D400/D630, delay time=100 μs, and integration time=200 μs. The half maximal inhibitory concentration (IC50) values for compounds were calculated from the quotient of the fluorescence signal at 665 nm divided by the fluorescence signal at 615 nm. The quotient of the fluorescence signals in the presence of DMSO without compound is set as 100 percent enzymatic activity. A 4-parameter logistic model in PRISM (GraphPad) was used to calculate the IC50 for a given compound.

Row | pIC50 | SMILES
1 | 5.30 to 6.30 | Cc1cc2c(Oc3ccc4c(c3)[C@H](C)N(C(=O)Nc3cnc(OC5CCN(C)CC5F)c(C(F)(F)F)c3)CC4)ccnc2[nH]1 (stereo in doubt) [VI-11]
2 | > 6.30 | CCN1CCN(Cc2ccc(NC(=O)N3CCc4ccc(Oc5cc(NC)ncn5)cc4C3)cc2C(F)(F)F)CC1 [II-1]
3 | > 6.30 | CCN1CCN(Cc2ccc(NC(=O)N3CCc4ccc(Oc5ncnn6cc(-c7cnn(C)c7)cc56)cc4C3)cc2C(F)(F)F)CC1 [II-2]
4 | > 6.30 | CCN1CCN(Cc2ccc(NC(=O)N3CCc4ccc(Oc5ncnc6[nH]ccc56)cc4C3)cc2C(F)(F)F)CC1 [II-3]
5 | > 6.30 | CCN1CCN(Cc2ccc(NC(=O)N3CCc4ccc(Oc5ccnc6[nH]ncc56)cc4C3)cc2C(F)(F)F)CC1 [II-4]
6 | > 6.30 | CCN1CCN(Cc2ccc(NC(=O)N3CCc4ccc(Oc5ncnc6[nH]ncc56)cc4C3)cc2C(F)(F)F)CC1 [II-5]
7 | > 6.30 | CCN1CCN(Cc2ccc(NC(=O)N3CCc4ccc(Oc5ncnc6[nH]cnc56)cc4C3)cc2C(F)(F)F)CC1 [II-6]
8 | > 6.30 | CCN1CCN(Cc2ccc(NC(=O)N3CCc4ccc(Oc5ncnn6cc(C)cc56)cc4C3)cc2C(F)(F)F)CC1 [II-7]
9 | > 6.30 | CCN1CCN(Cc2ccc(NC(=O)N3CCc4ccc(Oc5ncnn6cc(F)cc56)cc4C3)cc2C(F)(F)F)CC1 [II-8]
10 | > 6.30 | CCN1CCN(Cc2ccc(NC(=O)N3CCc4ccc(Oc5cc(NC(C)=O)ncn5)cc4C3)cc2C(F)(F)F)CC1 [II-9]
11 | > 6.30 | CCN1CCN(Cc2ccc(NC(=O)N3CCc4ccc(Oc5cc(NC(=O)C6CC6)ncn5)cc4C3)cc2C(F)(F)F)CC1 [II-10]
12 | > 6.30 | CCN1CCN(Cc2ccc(NC(=O)N3CCc4ccc(Oc5ccnc6c5CCC(=O)N6)cc4C3)cc2C(F)(F)F)CC1 [II-11]
13 | > 6.30 | CCN1CCN(Cc2ccc(NC(=O)N3CCc4ccc(Oc5ccnc6[nH]c(=O)ccc56)cc4C3)cc2C(F)(F)F)CC1 [II-12]
14 | > 6.30 | CCN1CCN(Cc2ccc(NC(=O)N3CCc4ccc(Oc5ccnc(NC)c5)cc4C3)cc2C(F)(F)F)CC1 [II-13]
15 | > 6.30 | CCN1CCN(Cc2ccc(NC(=O)N3CCc4ccc(Oc5ccnc(NC(C)=O)c5)cc4C3)cc2C(F)(F)F)CC1 [II-14]
16 | > 6.30 | CCN1CCN(Cc2ccc(NC(=O)N3CCc4ccc(Oc5ccnc(NC(=O)C6CC6)c5)cc4C3)cc2C(F)(F)F)CC1 [II-15]
17 | 5.30 to 6.30 | CN1CCC(Oc2ccc(NC(=O)N3CCc4ccc(Oc5ncnn6cccc56)cc4C3)cc2C(F)(F)F)CC1 [II-16]
18 | > 6.30 | CCN1CCN(Cc2ccc(NC(=O)N3CCc4ccc(Oc5cc(Nc6ncc[nH]6)ncn5)cc4C3)cc2C(F)(F)F)CC1 [II-17]
19 | > 6.30 | CCN1CCN(Cc2ccc(NC(=O)N3CCc4ccc(Oc5ccnn6cccc56)cc4C3)cc2C(F)(F)F)CC1 [II-19]
20 | > 6.30 | CCN1CCN(Cc2ccc(NC(=O)N3CCc4ccc(Oc5ccnc6[nH]cnc56)cc4C3)cc2C(F)(F)F)CC1 [II-20]
21 | 5.30 to 6.30 | CCN1CCN(Cc2ccc(NC(=O)N3CCc4ccc(Oc5cn[nH]c5)cc4C3)cc2C(F)(F)F)CC1 [II-21]
22 | > 6.30 | CCN1CCN(Cc2ccc(NC(=O)N3CCc4ccc(Oc5ccnn6cc(F)cc56)cc4C3)cc2C(F)(F)F)CC1 [II-22]
23 | > 6.30 | CCN1CCN(Cc2ccc(NC(=O)N3CCc4ccc(Oc5ccnn6cc(Cl)cc56)cc4C3)cc2C(F)(F)F)CC1 [II-23]
24 | > 6.30 | CCN1CCN(Cc2ccc(NC(=O)N3CCc4ccc(Oc5ccnn6cc(Br)cc56)cc4C3)cc2C(F)(F)F)CC1 [II-24]
25 | > 6.30 | CCN1CCN(Cc2ccc(NC(=O)N3CCc4ccc(Oc5ccnn6cc(-c7c[nH]cn7)cc56)cc4C3)cc2C(F)(F)F)CC1 [II-25]

Row | pIC50 | SMILES
26 | > 6.30 | CCN1CCN(Cc2ccc(NC(=O)N3CCc4ccc(Oc5ccnn6cc(-c7cnn(C)c7)cc56)cc4C3)cc2C(F)(F)F)CC1 [II-26]
27 | > 6.30 | CCN1CCN(Cc2ccc(NC(=O)N3CCc4cc(C)c(Oc5ccnc6[nH]ccc56)cc4C3)cc2C(F)(F)F)CC1 [III-1]
28 | > 6.30 | CCN1CCN(Cc2ccc(NC(=O)N3CCc4ccc(Oc5ccnc6[nH]ccc56)c(C)c4C3)cc2C(F)(F)F)CC1 [III-2]
29 | > 6.30 | CCN1CCN(Cc2ccc(NC(=O)N3CCc4ccc(Oc5ccnc6[nH]ccc56)c(F)c4C3)cc2C(F)(F)F)CC1 [III-3]
30 | > 6.30 | CCN1CCN(Cc2ccc(NC(=O)N3CCc4ccc(Oc5ccnc6[nH]c(C)cc56)cc4C3)cc2C(F)(F)F)CC1 [III-4]
31 | > 6.30 | CCN1CCN(Cc2ccc(NC(=O)N3CCc4ccc(Oc5ccnc6c5CCN6)cc4C3)cc2C(F)(F)F)CC1 [III-5]
32 | 5.30 to 6.30 | CCN1CCN(Cc2ccc(NC(=O)N3CCc4ccc(Oc5c(C)cnc6[nH]ccc56)cc4C3)cc2C(F)(F)F)CC1 [III-6]
33 | 5.30 to 6.30 | CCN1CCN(Cc2ccc(NC(=O)N3CCc4ccc(Oc5c(Cl)cnc6[nH]ccc56)cc4C3)cc2C(F)(F)F)CC1 [III-7]
34 | > 6.30 | CCN1CCN(Cc2ccc(NC(=O)N3CCc4ccc(Oc5c(F)cnc6[nH]ccc56)cc4C3)cc2C(F)(F)F)CC1 [III-8]
35 | > 6.30 | CCN1CCN(Cc2ccc(NC(=O)N3CCc4c(C)cc(Oc5ccnc6[nH]ccc56)cc4C3)cc2C(F)(F)F)CC1 [III-9]
36 | > 6.30 | CN1CCC(Oc2ccc(NC(=O)N3CCc4ccc(Oc5ccnc6[nH]ccc56)cc4C3)cc2C(F)(F)F)CC1 [III-11]
37 | 5.30 to 6.30 | CCN1CCN(Cc2ccc(NC(=O)N3CCc4ccc(Oc5cc(C)nc6[nH]ccc56)cc4C3)cc2C(F)(F)F)CC1 [III-12]
38 | 5.30 to 6.30 | CCN1CCN(Cc2ccc(NC(=O)N3CCc4ccc(Oc5ccnc6[nH]ccc56)cc4C3C)cc2C(F)(F)F)CC1 (centres unmarked) [IV-1]
39 | > 6.30 | CCN1CCN(Cc2ccc(NC(=O)N3Cc4cc(Oc5ccnc6[nH]ccc56)ccc4C(C)C3)cc2C(F)(F)F)CC1 (centres unmarked) [IV-3]
40 | 5.30 to 6.30 | CCN1CCN(Cc2ccc(NC(=O)N3CCc4c(C)cc(Oc5ccnc6[nH]ccc56)cc4C3C)cc2C(F)(F)F)CC1 (centres unmarked) [IV-5]
41 | 5.30 to 6.30 | CCN1CCN(Cc2ccc(NC(=O)N3CCc4cc(F)c(Oc5ccnc6[nH]ccc56)cc4C3C)cc2C(F)(F)F)CC1 (centres unmarked) [IV-7]
42 | > 6.30 | C[C@H]1c2cc(Oc3ccnc4[nH]ccc34)ccc2CCN1C(=O)Nc1cc(C(F)(F)F)c(OC2CCN(C)CC2)cn1 [IV-9]
43 | 5.30 to 6.30 | CCN1CCN(Cc2ccc(NC(=O)N3CCc4nc(C)c(Oc5ccnc6[nH]ccc56)cc4C3C)cc2C(F)(F)F)CC1 (centres unmarked) [IV-10]
44 | 5.30 to 6.30 | CCN1CCN(Cc2ccc(NC(=O)N3CCc4c(C#N)cc(Oc5ccnc6[nH]ccc56)cc4C3C)cc2C(F)(F)F)CC1 (centres unmarked) [IV-11]
45 | 5.30 to 6.30 | CCN1CCN(Cc2ccc(NC(=O)N3CCc4cc(C#N)c(Oc5ccnc6[nH]ccc56)cc4C3C)cc2C(F)(F)F)CC1 (centres unmarked) [IV-12]
46 | > 6.30 | CCN1CCN(Cc2ccc(NC(=O)N3CCc4cc(Br)c(Oc5ccnc6[nH]ccc56)cc4C3C)cc2C(F)(F)F)CC1 (centres unmarked) [IV-13]
47 | > 6.30 | CCN1CCN(Cc2ccc(NC(=O)N3CCc4c(F)cc(Oc5ccnc6[nH]ccc56)cc4C3C)cc2C(F)(F)F)CC1 (centres unmarked) [IV-14]
48 | > 6.30 | CCN1CCN(Cc2ccc(NC(=O)N3CCc4c(F)cc(Oc5ccnc6[nH]ccc56)cc4C3C)cc2C(F)(F)F)CC1 (centres unmarked) [IV-15]
49 | 5.30 to 6.30 | CCN1CCN(Cc2ccc(NC(=O)N3CCc4c(F)cc(Oc5ccnc6[nH]ccc56)cc4C3C)cc2C(F)(F)F)CC1 (centres unmarked) [IV-16]
50 | > 6.30 | CCN1CCN(Cc2ccc(NC(=O)N3Cc4cc(Oc5ccnc6[nH]c(C)cc56)ccc4C(C)C3)cc2C(F)(F)F)CC1 (centres unmarked) [IV-17]
